# Test results from ChEMBL document CHEMBL1649403, “CYP1A2-mediated biotransformation of cardioactive 2-thienylidene-3,4-methylenedioxybenzoylhydrazine (LASSBio-294) by rat liver microsomes and human recombinant CYP enzymes” (Eur J Med Chem, 2011).
# Legend:
# Cytochrome P450 2D6 = Cytochrome P450 2D6 (Homo sapiens, UniProt P10635); assay: Activity of human recombinant CYP2D6 assessed as compound remaining; type: ADME; conditions: recombinant enzyme
# Cytochrome P450 2C8 = target: T1, Cytochrome P450 2C8 (Homo sapiens, UniProt P10632); assay: Activity of human recombinant CYP2C8 assessed as compound remaining; type: ADME; conditions: recombinant enzyme
# T1 sequence (P10632 whole entry): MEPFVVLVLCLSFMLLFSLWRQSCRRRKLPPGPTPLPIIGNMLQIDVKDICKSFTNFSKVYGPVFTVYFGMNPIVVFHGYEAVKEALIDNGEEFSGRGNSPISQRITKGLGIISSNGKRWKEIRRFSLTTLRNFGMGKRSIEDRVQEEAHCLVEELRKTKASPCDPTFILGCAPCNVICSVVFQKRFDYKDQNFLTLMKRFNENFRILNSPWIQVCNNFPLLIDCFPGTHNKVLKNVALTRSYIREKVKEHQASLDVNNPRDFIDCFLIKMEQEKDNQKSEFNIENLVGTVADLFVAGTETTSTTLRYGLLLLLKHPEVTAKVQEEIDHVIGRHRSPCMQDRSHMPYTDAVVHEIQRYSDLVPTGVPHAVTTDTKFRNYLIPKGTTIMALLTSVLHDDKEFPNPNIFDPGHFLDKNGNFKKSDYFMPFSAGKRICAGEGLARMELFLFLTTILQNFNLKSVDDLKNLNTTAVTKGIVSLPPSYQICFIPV
# Cytochrome P450 2C19 = Cytochrome P450 2C19 (Homo sapiens, UniProt P33261); assay: Activity of human recombinant CYP2C19 assessed as compound remaining; type: ADME; conditions: recombinant enzyme
# Chain of Cytochrome P450 2C19 (P33261 whole entry): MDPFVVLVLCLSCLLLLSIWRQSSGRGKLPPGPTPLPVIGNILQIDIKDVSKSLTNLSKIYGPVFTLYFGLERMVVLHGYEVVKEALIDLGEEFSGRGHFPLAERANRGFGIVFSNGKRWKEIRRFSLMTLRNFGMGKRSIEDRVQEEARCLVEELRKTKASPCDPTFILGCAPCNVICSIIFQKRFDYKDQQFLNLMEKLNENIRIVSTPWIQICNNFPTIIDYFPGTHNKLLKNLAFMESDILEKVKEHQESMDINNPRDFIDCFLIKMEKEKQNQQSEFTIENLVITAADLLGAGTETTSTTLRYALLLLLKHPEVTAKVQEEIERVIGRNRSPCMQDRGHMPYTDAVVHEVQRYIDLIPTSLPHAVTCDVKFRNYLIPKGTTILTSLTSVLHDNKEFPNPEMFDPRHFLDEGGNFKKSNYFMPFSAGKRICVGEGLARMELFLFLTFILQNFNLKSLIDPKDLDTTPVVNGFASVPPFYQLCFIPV
# Cytochrome P450 1A2 = target: T2, Cytochrome P450 1A2 (Homo sapiens, UniProt P05177); assay: Activity of human recombinant CYP1A2 assessed as compound remaining; type: ADME; conditions: recombinant enzyme
# T2 sequence (P05177 whole entry): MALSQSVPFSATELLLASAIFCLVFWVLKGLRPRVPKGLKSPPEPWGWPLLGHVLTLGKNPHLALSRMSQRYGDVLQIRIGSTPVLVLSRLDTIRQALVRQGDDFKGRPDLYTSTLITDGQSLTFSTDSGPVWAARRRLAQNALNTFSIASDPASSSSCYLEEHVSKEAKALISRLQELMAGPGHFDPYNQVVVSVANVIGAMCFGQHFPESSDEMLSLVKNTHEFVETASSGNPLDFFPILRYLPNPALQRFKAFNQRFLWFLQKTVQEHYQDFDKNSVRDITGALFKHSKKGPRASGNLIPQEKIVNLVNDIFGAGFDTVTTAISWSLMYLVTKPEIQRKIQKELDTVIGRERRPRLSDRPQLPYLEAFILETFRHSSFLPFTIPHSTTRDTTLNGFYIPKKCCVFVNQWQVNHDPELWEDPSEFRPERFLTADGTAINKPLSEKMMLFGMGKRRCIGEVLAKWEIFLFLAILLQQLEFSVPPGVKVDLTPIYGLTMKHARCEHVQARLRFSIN
# Cytochrome P450 3A5 = Cytochrome P450 3A5 (Homo sapiens, UniProt P20815); assay: Activity of human recombinant CYP3A5 assessed as compound remaining; type: ADME; conditions: recombinant enzyme
# Chain of Cytochrome P450 3A5 (P20815 whole entry): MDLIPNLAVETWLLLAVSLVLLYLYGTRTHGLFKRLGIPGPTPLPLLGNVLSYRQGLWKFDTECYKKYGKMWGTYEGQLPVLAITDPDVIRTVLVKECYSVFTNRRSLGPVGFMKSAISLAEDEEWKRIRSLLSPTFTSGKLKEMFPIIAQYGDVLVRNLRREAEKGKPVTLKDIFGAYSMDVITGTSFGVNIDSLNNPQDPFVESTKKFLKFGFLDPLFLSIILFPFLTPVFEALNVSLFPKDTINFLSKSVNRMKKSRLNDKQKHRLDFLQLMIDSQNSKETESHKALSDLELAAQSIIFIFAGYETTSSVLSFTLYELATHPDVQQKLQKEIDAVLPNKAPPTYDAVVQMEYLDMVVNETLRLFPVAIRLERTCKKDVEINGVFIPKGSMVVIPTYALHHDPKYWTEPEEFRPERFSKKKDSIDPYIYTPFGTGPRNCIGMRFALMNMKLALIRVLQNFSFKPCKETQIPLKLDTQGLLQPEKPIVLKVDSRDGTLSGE
# Cytochrome P450 2B6 = target: T3, Cytochrome P450 2B6 (Homo sapiens, UniProt P20813); assay: Activity of human recombinant CYP2B6 assessed as compound remaining; type: ADME; conditions: recombinant enzyme
# T3 sequence (P20813 whole entry): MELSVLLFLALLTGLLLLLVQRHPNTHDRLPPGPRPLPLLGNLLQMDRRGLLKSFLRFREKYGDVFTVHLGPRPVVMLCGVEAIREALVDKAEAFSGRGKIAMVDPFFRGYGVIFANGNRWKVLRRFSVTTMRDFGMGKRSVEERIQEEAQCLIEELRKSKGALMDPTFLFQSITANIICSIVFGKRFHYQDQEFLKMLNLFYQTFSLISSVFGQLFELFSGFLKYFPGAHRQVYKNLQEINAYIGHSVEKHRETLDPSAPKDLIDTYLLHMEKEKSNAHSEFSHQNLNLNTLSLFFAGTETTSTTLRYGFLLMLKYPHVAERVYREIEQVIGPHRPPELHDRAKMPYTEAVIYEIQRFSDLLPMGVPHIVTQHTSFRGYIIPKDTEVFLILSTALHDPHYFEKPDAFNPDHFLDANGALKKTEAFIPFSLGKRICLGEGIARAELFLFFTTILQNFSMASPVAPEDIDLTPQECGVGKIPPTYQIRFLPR
# Cytochrome P450 2C9 = Cytochrome P450 2C9 (Homo sapiens, UniProt P11712); assay: Activity of human recombinant CYP2C9 assessed as compound remaining; type: ADME; conditions: recombinant enzyme
# Chain of Cytochrome P450 2C9 (P11712 whole entry): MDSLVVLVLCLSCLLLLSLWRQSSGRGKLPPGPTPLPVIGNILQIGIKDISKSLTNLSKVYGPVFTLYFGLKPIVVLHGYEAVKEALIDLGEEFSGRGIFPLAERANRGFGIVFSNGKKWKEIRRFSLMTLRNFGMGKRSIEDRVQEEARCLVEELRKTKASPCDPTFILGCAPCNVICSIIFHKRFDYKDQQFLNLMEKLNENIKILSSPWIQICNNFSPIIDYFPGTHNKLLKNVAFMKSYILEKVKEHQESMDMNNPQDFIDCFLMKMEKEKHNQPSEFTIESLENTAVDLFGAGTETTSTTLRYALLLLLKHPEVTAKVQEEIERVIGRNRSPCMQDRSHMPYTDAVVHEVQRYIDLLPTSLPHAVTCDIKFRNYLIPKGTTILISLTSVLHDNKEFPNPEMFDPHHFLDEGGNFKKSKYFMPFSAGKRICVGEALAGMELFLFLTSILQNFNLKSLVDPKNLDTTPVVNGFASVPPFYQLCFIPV
# Cytochrome P450 3A4 = Cytochrome P450 3A4 (Homo sapiens, UniProt P08684); assay: Activity of human recombinant CYP3A4 assessed as compound remaining; type: ADME; conditions: recombinant enzyme
# Chain of Cytochrome P450 3A4 (P08684 whole entry): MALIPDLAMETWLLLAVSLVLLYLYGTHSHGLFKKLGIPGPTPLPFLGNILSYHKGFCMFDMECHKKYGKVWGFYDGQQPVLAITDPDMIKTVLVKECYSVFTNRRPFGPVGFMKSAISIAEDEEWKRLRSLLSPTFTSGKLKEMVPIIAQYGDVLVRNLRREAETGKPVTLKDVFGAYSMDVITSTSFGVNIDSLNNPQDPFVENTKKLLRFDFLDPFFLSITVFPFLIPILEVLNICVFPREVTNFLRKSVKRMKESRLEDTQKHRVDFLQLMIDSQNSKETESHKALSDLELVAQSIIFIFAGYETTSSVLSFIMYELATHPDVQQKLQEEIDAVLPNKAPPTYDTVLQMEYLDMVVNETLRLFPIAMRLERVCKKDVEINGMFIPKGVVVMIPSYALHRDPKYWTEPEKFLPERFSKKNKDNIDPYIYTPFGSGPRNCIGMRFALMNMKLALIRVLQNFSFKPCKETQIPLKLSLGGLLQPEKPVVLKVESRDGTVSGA
# Liver microsomes [1] = assay: Metabolic stability in rat liver microsomes in presence of CYP1A2 inhibitor furafylline; type: ADME, Microsome
# Liver microsomes [2] = assay: Metabolic stability in rat liver microsomes in presence of non-selective cytochrome P450 inhibitor ketoconazole; type: ADME, Microsome
# Liver microsomes [3] = assay: Metabolic stability in rat liver microsomes in presence of CYP2D6 inhibitor quinidine; type: ADME, Microsome
# Liver microsomes [4] = assay: Metabolic stability in rat liver microsomes in presence of CYP2C9 inhibitor sulfaphenazole; type: ADME, Microsome
# Chain of Cytochrome P450 2D6 (P10635 whole entry): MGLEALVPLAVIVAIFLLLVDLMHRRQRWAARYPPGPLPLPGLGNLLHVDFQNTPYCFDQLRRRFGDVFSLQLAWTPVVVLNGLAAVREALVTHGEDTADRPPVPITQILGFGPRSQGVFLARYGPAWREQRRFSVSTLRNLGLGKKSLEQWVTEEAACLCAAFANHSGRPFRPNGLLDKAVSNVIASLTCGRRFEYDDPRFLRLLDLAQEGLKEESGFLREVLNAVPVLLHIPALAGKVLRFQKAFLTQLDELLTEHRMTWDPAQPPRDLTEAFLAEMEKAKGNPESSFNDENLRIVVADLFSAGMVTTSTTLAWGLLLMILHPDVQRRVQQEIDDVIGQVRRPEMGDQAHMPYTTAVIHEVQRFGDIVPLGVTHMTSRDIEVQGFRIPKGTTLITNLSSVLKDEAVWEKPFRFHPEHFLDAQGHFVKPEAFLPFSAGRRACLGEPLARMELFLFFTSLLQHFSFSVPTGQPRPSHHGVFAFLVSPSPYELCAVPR
structure (smiles),measurement,setting,value
O=C(N/N=C/c1cccs1)c1ccc2c(c1)OCO2,Activity,Cytochrome P450 2D6,95%
same,Activity,Cytochrome P450 2C8,99%
same,Activity,Cytochrome P450 2C19,96%
same,Activity,Cytochrome P450 1A2,67%
same,Activity,Cytochrome P450 3A5,100%
same,Activity,Cytochrome P450 2B6,98%
same,Activity,Cytochrome P450 2C9,81%
same,Activity,Cytochrome P450 3A4,92%
Cc1nc2c([nH]1)c(=O)n(C)c(=O)n2Cc1ccco1 [FURAFYLLINE],Stability,Liver microsomes [1],0.12 µM
CC(=O)N1CCN(c2ccc(OCC3COC(Cn4ccnc4)(c4ccc(Cl)cc4Cl)O3)cc2)CC1 (configuration not stated) [KETOCONAZOLE],Stability,Liver microsomes [2],0.31 µM
C=C[C@H]1C[N@@]2CC[C@H]1C[C@@H]2[C@@H](O)c1ccnc2ccc(OC)cc12 [QUINIDINE],Stability,Liver microsomes [3],0.91 µM
Nc1ccc(S(=O)(=O)Nc2ccnn2-c2ccccc2)cc1 [SULFAPHENAZOLE],Stability,Liver microsomes [4],0.85 µM
